In patent US6544551B1, “Solid pharmaceutical compositions containing hexedecylphosphocholine (miltefosine) for oral administration in the treatment of leishmaniasis” (priority 1998, dated 2003):

Tests used:
[1] = Hygroscopicity (incorporation of water molecules); format: physicochemical
[2] = test system: experimental visceral leishmaniasis (VL); details: in vivo; cited from earlier work
[3] = Clinical study of oral miltefosine capsules in human visceral leishmaniasis: tolerability and safety; format: in vivo
Protocol: (§1) Miltefosine (MILT, hexadecylphosphocholine, ASTA Medica), an antineoplastic alkylphospholipid, is active in experimental visceral leishmaniasis (VL). To test oral MILT in human VL, 30 male Indian patients from Bihar (age>14 years; 18 of the 30 were antimony (Sb) failures) with splenic aspirate-positive VL were treated in 6 groups of 5 patients each (Groups A-F) for 28 days with escalating doses by oral administration of capsules according to example 1: (A) 50 mg once qod (qod=[…]), (B) 50 mg BID god (BID=twice per day), and then daily using 50 mg (C) BID (100 mg/d), (D) TID (150 mg/d), (E) QID (200 mg/d), and (F) 5×per day (250 mg/d).

[4] = test system: visceral leishmaniasis (VL); assay: Clinical study of oral miltefosine capsules in human visceral leishmaniasis: efficacy; format: in vivo
Protocol: as §1

[5] = Day 14 results in 30 patients, Groups A-F together, oral
[6] = Group A: 50 mg once qod, 28 days, oral
[7] = Group B: 50 mg BID qod, 28 days, oral
[8] = Group D: 50 mg TID (150 mg/d), 28 days, oral

CCCCCCCCCCCCCCCCOP(=O)([O-])OCC[N+](C)(C)C [Miltefosine, hexadecylphosphocholine]
increase in weight by incorporation of water molecules [1]: up to 30% | activity in experimental visceral leishmaniasis [2]: active | patients died ([3]; Group F (250 mg/d), died on day 21, drug stopped on day 19, severe vomiting and diarrhea, dehydration, renal failure): 1 patient | hematologic toxicity ([3]; human, in vivo): no hematologic toxicity | mild vomiting or diarrhea lasting 3-7 days ([3]; human, in vivo): most patients | patients removed because of vomiting, Group F ([3]; male, human, in vivo, 28 days): 3 | maximum tolerated daily dose ([3]; oral, human VL patients, 28 days): 200 mg/day | patients afebrile by day 7 ([4]; 30 male Indian VL patients, Groups A-F together, oral capsules according to example 1, 28 days, day 7): 16 patients | all 3 responses (afebrile, decreased spleen size, negative aspirate) = apparent cures, day 14 ([4]; Day 14, Groups A-F together, oral): 21 of 30 | afebrile, day 14 [4, 5]: 25 patients | decreased spleen size, day 14 [4, 5]: 25 patients | negative spleenic aspirates (apparent parasitologic cure), day 14 [4, 5]: 28 patients | apparent cures on day 28 (percent of patients) ([4]; Day 28, 29 patients): 100% | apparent cures on day 28 ([4]; Day 28, Groups A-F together, including 4 patients with less than 10 days of therapy): 29 of 29 | cure (no relapse, parasite-free bone marrow aspirate) within 6 months, Group A [4, 6]: 2/5 | relapsed within 6 months, Group A [4, 6]: 3/5 | cure (no relapse, parasite-free bone marrow aspirate) within 6 months, Group B [4, 7]: 2/5 | relapsed within 6 months, Group B [4, 7]: 3/5 | cure (no relapse, parasite-free bone marrow aspirate) within 6 months, Group C ([4]; Group C: 50 mg BID (100 mg/d), 28 days, oral): 5/5 | cure (no relapse, parasite-free bone marrow aspirate) within 6 months, Group D [4, 8]: 4/5 | relapsed within 6 months, Group D [4, 8]: 1/5 | cure (no relapse, parasite-free bone marrow aspirate) within 6 months, Group E ([4]; Group E: 50 mg QID (200 mg/d), 28 days, oral): 5/5 | apparent cures relapsed within 6 months ([4]; all groups, within 6 months): 7 of 29 | apparent cure (no relapse, parasite-free bone marrow aspirate) within 6 months ([4]; all groups, within 6 months, 1 patient still in follow up): 21 of 26 | patients with definite cure who had failed prior therapy with antimony ([4]; of the first 21 patients with definite cure): 14 patients
